Assay results: US11166949B2, “NURR1 activation in the treatment of metabolic disorders and as an exercise mimetic” (The Board of Regents of the University of Texas System, priority 2016, dated 2021)
Entries after “also recorded” stand apart in the source; their conditions may differ.

Experiments:
[1] = test system: WT mice on normal chow and HFD; assay: Nurr1 agonist treatment of WT mice on normal chow and HFD: weight gain, food intake, body composition, adipose histology; type: in vivo; settings: for weight gain: WT mice on normal chow
Description: Animals. Animals were housed in a pathogen free barrier facility with a 12 hour light/dark cycle and maintained on standard chow (2916 Teklad Global). The Nurr1 transcript was amplified from Invitrogen library with Nurr1-specific primers. Nurr1 was cloned into a plasmid containing the human skeletal muscle actin promoter and human GH (hGH) poly(A) signal. Nurr1 transgenic mice (referred as Nurr1-mTg) were backcrossed with C57/BL6J mice for more than four generations. C57BL/6J, ob/ob and db/db mice were obtained from Jackson Laboratories. Male mice were used in all experiments. For HFD (60% fat calories; D12492, Research Diet), mice were fed from the age of 5 weeks to the indicated times. Tissues were taken in the fed state except when otherwise mentioned. Drug treatments. […] Isoxazolo-pyridinone 7e (IP7e) was purchased from Millipore and dissolved in Tween 80 in a 10× stock solution. To obtain the final concentration (1×; 10 mg/kg) IP7e was dissolved in saline solution (0.9% NaCl). IP7e treatment by gavage was performed once a day. Control animals received the Tween 80 dissolved saline solution (0.9% NaCl, vehicle). Histology. WAT, BAT and liver were isolated and fixed in 4% paraformaldehyde (PFA) and processed for H&E staining. For oil red O staining, liver tissues were fixed in 4% PFA overnight, incubated in 12% sucrose for 12 hours then in 18% sucrose overnight before being cryoembedded and sectioned by the UT Southwestern Histology Core Facility. For skeletal muscle fiber analysis, tissues were frozen in liquid-nitrogen precooled isopentane, and 8 μm sections were used for H&E and fiber type staining. Metabolic chambers and whole-body composition analysis. Metabolic phenotyping of WT and Nurr1-mTg mice on HFD was performed using TSE metabolic chamber analysis by the Mouse Metabolic Phenotyping Core Facility at University of Texas Southwestern Medical Center. Thirteen week old mice on HFD were placed in TSE metabolic chambers for an initial 5 days acclimation period, followed by a 4.5 days experimental period with data collection. Whole-body composition parameters were measured by magnetic resonance imaging (MRI) using a Bruker Minispec mq10 system.

mice on HFD = assay: Glucose tolerance test and insulin tolerance test; type: in vivo
Description: Glucose uptake and insulin tolerance. Glucose tolerance test and insulin tolerance test were performed as previously described. For glucose tolerance test, mice were fasted for 6 hr and injected intraperitoneally with a glucose solution (0.15 g/ml, 158968 from Sigma-Aldrich, St. Louis, Mo.) at 1.5 g/kg body weight. Blood glucose concentrations were measured before and 15, 30, 60 and 90 min after glucose injection. For insulin tolerance test, mice […] for 6 hours were injected intraperitoneally with insulin (Human insulin 19278 from Sigma-Aldrich, St. Louis, Mo.) at 1.0 U/kg body weight. Blood glucose concentrations were measured before and 15, 30, 60 and 90 min after insulin injection.

[2] = Serum insulin and triglyceride levels; type: in vivo; settings: WT-HFD-AQ vs WT-HFD mice, after 10 weeks on HFD, postprandial
Description: Plasma and tissue chemistry. Blood was collected using a 1 ml syringe coated in 0.5 M K2EDTA and serum collected by centrifugation for 20 min at 1000×g. Insulin and leptin levels were measured by ELISA. Serum triglycerides levels were measured using the Ortho Vitros 250 chemistry system. To measure triglyceride in the liver and skeletal muscle, tissue specimens were frozen immediately after isolation and pulverized in liquid nitrogen with a cell crusher. Serum and tissue triglyceride levels were measured by Mouse Metabolic Phenotyping Core Facility at University of Texas Southwestern Medical Center.

[3] = Metabolic cages (energy expenditure); type: in vivo; settings: WT-HFD-AQ compared to WT mice, normalized to lean mass
WT mice on HFD = assay: Liver TRIG accumulation / hepatic steatosis in response to HFD; type: in vivo; settings: for hepatic steatosis: WT mice on HFD
Description: (§1) Histology. WAT, BAT and liver were isolated and fixed in 4% paraformaldehyde (PFA) and processed for H&E staining. For oil red O staining, liver tissues were fixed in 4% PFA overnight, incubated in 12% sucrose for 12 hours then in 18% sucrose overnight before being cryoembedded and sectioned by the UT Southwestern Histology Core Facility. For skeletal muscle fiber analysis, tissues were frozen in liquid-nitrogen precooled isopentane, and 8 μm sections were used for H&E and fiber type staining. Plasma and tissue chemistry. Blood was collected using a 1 ml syringe coated in 0.5 M K2EDTA and serum collected by centrifugation for 20 min at 1000×g. Insulin and leptin levels were measured by ELISA. Serum triglycerides levels were measured using the Ortho Vitros 250 chemistry system. To measure triglyceride in the liver and skeletal muscle, tissue specimens were frozen immediately after isolation and pulverized in liquid nitrogen with a cell crusher. Serum and tissue triglyceride levels were measured by Mouse Metabolic Phenotyping Core Facility at University of Texas Southwestern Medical Center.

ob/ob mice [4] = assay: AQ treatment of leptin deficient (ob/ob) mice: body weight, food intake; type: in vivo
Description: Animals. Animals were housed in a pathogen free barrier facility with a 12 hour light/dark cycle and maintained on standard chow (2916 Teklad Global). The Nurr1 transcript was amplified from Invitrogen library with Nurr1-specific primers. Nurr1 was cloned into a plasmid containing the human skeletal muscle actin promoter and human GH (hGH) poly(A) signal. Nurr1 transgenic mice (referred as Nurr1-mTg) were backcrossed with C57/BL6J mice for more than four generations. C57BL/6J, ob/ob and db/db mice were obtained from Jackson Laboratories. Male mice were used in all experiments. For HFD (60% fat calories; D12492, Research Diet), mice were fed from the age of 5 weeks to the indicated times. Tissues were taken in the fed state except when otherwise mentioned. Drug treatments. […] Isoxazolo-pyridinone 7e (IP7e) was purchased from Millipore and dissolved in Tween 80 in a 10× stock solution. To obtain the final concentration (1×; 10 mg/kg) IP7e was dissolved in saline solution (0.9% NaCl). IP7e treatment by gavage was performed once a day. Control animals received the Tween 80 dissolved saline solution (0.9% NaCl, vehicle).

ob/ob mice [5] = assay: Liver TRIG accumulation in ob/ob mice; type: in vivo
Description: as §1

[6] = mouse, in vivo
Nurr1 = Nurr1 (Homo sapiens, UniProt P43354); settings: cited from earlier work
[7] = test system: chloroquine-resistant Plasmodium falciparum; settings: chloroquine-resistant Plasmodium falciparum malaria infections; cited from earlier work
[8] = test system: dopaminergic neurons in the substantia nigra pars compacta; settings: MPTPp-treated mice, cited from earlier work
BV-2 microglia = settings: cited from earlier work
NF-κB = settings: NF-κB-GFP reporter cells; cited from earlier work
[9] = cited from earlier work
[10] = WT-HFD-AQ compared to WT-HFD mice
[11] = ob/ob mice on normal chow, AQ in drinking water, 4 weeks

Chain of Nurr1 (P43354 whole entry): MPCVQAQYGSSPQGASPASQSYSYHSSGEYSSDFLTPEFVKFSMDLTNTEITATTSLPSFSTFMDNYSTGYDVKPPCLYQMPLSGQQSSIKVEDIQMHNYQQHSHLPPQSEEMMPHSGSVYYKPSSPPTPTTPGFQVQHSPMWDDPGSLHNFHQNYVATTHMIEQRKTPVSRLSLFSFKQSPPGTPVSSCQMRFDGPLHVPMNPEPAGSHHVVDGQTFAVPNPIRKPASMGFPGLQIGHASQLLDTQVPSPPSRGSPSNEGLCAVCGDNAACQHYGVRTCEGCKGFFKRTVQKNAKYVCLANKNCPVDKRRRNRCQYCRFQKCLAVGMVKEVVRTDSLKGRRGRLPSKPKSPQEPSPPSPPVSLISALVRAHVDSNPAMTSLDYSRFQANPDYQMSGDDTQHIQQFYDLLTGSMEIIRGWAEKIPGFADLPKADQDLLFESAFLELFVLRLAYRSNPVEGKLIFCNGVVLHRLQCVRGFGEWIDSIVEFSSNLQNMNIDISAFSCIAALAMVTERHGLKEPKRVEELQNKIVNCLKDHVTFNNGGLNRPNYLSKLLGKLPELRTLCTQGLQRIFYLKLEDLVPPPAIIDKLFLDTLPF

## CCN(CC)Cc1cc(Nc2ccnc3cc(Cl)ccc23)ccc1O [AQ, amodiaquine]
[1]; WT mice on HFD, AQ in drinking water ad libitum, 10 weeks
  obesity on HFD: completely prevented obesity; also recorded: confers resistance to obesity
[1]; WT mice on HFD, AQ in drinking water, 10 weeks
  body weights: comparable to mice on normal chow
[1]; WT mice on HFD, AQ vs control mice on HFD
  food consumption / food intake: no difference; also recorded: does not affect
[1]; AQ in drinking water ad libitum, 10 weeks
  weight gain: no effect
[1]; [10]
  adipocyte size in white adipose tissue: decreases
  fat mass: significant decrease; also recorded: decreases
  lean mass composition: increase
Mice on HFD; AQ
  glucose tolerance: dramatic improvement
  insulin tolerance: dramatic improvement
[2]
  serum insulin levels: significantly lower
  serum triglyceride levels: significantly lower
[3]
  CO2 production: significant increase
  O2 consumption: significant increase
WT mice on HFD; AQ
  hepatic steatosis: resistant to the hepatic steatosis; also recorded: prevents hepatic steatosis
WT mice on HFD; WT-HFD-AQ mice vs WT on HFD
  decrease in hepatic TRIG levels: 50%
ob/ob mice [4]; [11]
  body weight: lose weight
  weight gain: resistant to weight gain
ob/ob mice [4]; ob/ob mice, AQ 4 weeks
  food intake (chow consumed): comparable quantities; also recorded: does not affect
ob/ob mice [5]; ob/ob mice treated with AQ compared to non treated mice, 4 weeks
  decrease in Tg levels (liver): 66%
ob/ob mice [5]; ob/ob mice treated with AQ, histological and biochemical analysis
  liver TRIG accumulation / hepatic steatosis: significant decrease; also recorded: recovers hepatic steatosis ob/ob mice to normal levels
[6]
  toxic effects: no toxic effects
Nurr1; among three compounds sharing a 4-amino-7-chloroquinoline scaffold
  Nurr1 activation levels: highest activation levels
[7]
  efficacy compared with chloroquine: more effective than chloroquine

## Clc1ccc(C(c2c[nH]c3ccccc23)c2c[nH]c3ccccc23)cc1 [C-DIM12, 1,1-bis(3′-indolyl)-1-(p-chlorophenyl) methane]
[8]; daily oral gavage
  neuroprotective activity: greatest neuroprotective activity
[8]
  suppressing activation of microglia and astrocytes: most potent compound
BV-2 microglia
  LPS-induced expression of NF-κB-regulated genes (NOS2, IL-6, CCL2): inhibited
NF-κB
  NF-κB activation: decreased

## COCCOCc1ccc(-c2cc3onc(-c4ccccc4)c3c(=O)n2C)cc1 [IP7e, Isoxazolo-pyridinone 7e]
[1]; WT mice on HFD, IP7e 10 mg/kg oral gavage once a day, 5 weeks
  obesity on HFD: prevented obesity; also recorded: confers resistance to obesity
[1]; WT mice on HFD, IP7e vs control mice on HFD
  food consumption / food intake: no difference
[1]; WT mice on HFD, IP7e vs control mice on HFD, listed as IP7
  food consumption / food intake: does not affect
[1]; IP7e 10 mg/kg oral gavage once a day, 5 weeks
  weight gain: no impact
Mice on HFD; IP7e
  glucose handling (glucose tolerance): improvement
WT mice on HFD; IP7e
  hepatic steatosis: resistant to the hepatic steatosis; also recorded: prevents hepatic steatosis
WT mice on HFD; WT-HFD-IP7e mice
  decrease in hepatic TRIG levels: 48%
Nurr1
  Nurr1-dependent transcriptional activity: potent activator

## CCN(CCO)CCCC(C)Nc1ccnc2cc(Cl)ccc12 (stereo not shown) [hydroxy-chloroquine]
[9]; high doses, individuals with type 2 diabetes without autoimmune conditions, two clinical trials
  glucose level: lowers glucose level
[9]; patients with autoimmune inflammatory arthritis, three clinical observational studies
  risk of developing diabetes: lower risk
